For 21 compounds, IC50 results are on record in patent US10745382B2 (BRISTOL-MYERS SQUIBB COMPANY, priority 2015, dated 2020).

Read-outs that look alike come from different tables or passages of the source.

The target in this assay is T1, PD-1/PD-L1 (Homo sapiens, UniProt Q9NZQ7).
T1 construct: made in house; host or cells: HEK293T
Briefly: PD-1/PD-L1 Homogenous Time-Resolved Fluorescence (HTRF) binding assay. To be noted: PD-L1-His 10 nM, PD-1-Ig 20 nM, read-out: Range or IC50. The procedure, abridged:
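Read-out is time-resolved FRET between europium cryptate-labelled anti-Ig (1 nM final) and APC-labelled anti-His (20 nM final), both dispensed onto the binding mix. Assay buffer: dPBS containing 0.1% bovine serum albumin and 0.05% Tween-20.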
Background: TR-FRET usually uses a lanthanide donor and a delayed reading to cut background.

T1 sequence (Q9NZQ7 with tags, fused parts or gaps): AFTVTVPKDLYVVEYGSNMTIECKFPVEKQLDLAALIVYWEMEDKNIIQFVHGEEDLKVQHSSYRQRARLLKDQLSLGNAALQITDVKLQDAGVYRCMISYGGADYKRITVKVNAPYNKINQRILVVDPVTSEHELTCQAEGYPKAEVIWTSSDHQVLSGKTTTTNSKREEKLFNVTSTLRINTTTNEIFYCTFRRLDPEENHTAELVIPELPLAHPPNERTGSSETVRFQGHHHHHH

Take `Cc1c(COc2cc(OCc3cncc(C#N)c3)c(CN3CCCC[C@H]3C(=O)O)cc2Cl)cccc1-c1cccc(OC[C@H]2CCN(CC(O)CO)C2)c1Cl` (stereo partly drawn) [Example 2120, (2S)-1-(5-chloro-4-((2′-chloro-3′-(((3S)-1-(2,3-dihydroxypropyl)pyrrolidin-3-yl)methoxy)-2-methyl-[1,1′-biphenyl]-3-yl)methoxy)-2-((5-cyanopyridin-3-yl)methoxy)benzyl)piperidine-2-carboxylic Acid]: the IC50 (in general, the concentration that gives 50% inhibition) (value given as range class) is 0.00021 to 0.01 µM. With `Cc1c(COc2cc(OCc3cncc(C#N)c3)c(CNCCN3CCOCC3)cc2Cl)cccc1-c1cccc(OCCCN2CC[C@@H](O)C2)c1C` [Example 2122, (R)-5-((4-chloro-5-((3′-(3-(3-hydroxypyrrolidin-1-yl)propoxy)-2,2′-dimethyl-[1,1′-biphenyl]-3-yl)methoxy)-2-(((2-morpholinoethyl)amino)methyl)phenoxy)methyl)nicotinonitrile], the concentration for half-maximal inhibition (IC50) (value given as range class) lay in the range of 0.00021 to 0.01 µM. Regarding `Cc1c(OCCCN2CC[C@@H](O)C2)cccc1-c1cccc(OCc2cc(O)c(CN(C)C)cc2Cl)c1C` [Example 2123, (R)-1-(3-((3′-((2-chloro-4-((dimethylamino)methyl)-5-hydroxybenzyl)oxy)-2,2′-dimethyl-[1,1′-biphenyl]-3-yl)oxy)propyl)pyrrolidin-3-ol], the half-maximal inhibitory concentration (IC50) (numeric IC50, cell prints uM) was determined as 2 µM.

Turning to `Cc1c(COc2cc(OCc3cncc(C#N)c3)c(CN3CC[C@@H](O)C3)cc2Cl)cccc1-c1cccc(OCCCN2CC[C@@H](O)C2)c1C` [Example 2201, 5-((4-chloro-2-(((R)-3-hydroxypyrrolidin-1-yl)methyl)-5-((3′-(3-((R)-3-hydroxypyrrolidin-1-yl)propoxy)-2,2′-dimethylbiphenyl-3-yl)methoxy)phenoxy)methyl)nicotinonitrile], for the setting “value given as range class”, the IC50 lay within 0.00021 to 0.01 µM. On the same count and under the same terms, the result for `Cc1c(COc2cc(OCc3cncc(C#N)c3)c(CN3CCCC[C@H]3C(=O)O)cc2Cl)cccc1-c1cccc(OCCCN2CCCCC2CO)c1C` (stereo partly drawn) [Example 2202, (2S)-1-(5-chloro-2-((5-cyanopyridin-3-yl)methoxy)-4-((3′-(3-(2-(hydroxymethyl)piperidin-1-yl)propoxy)-2,2′-dimethylbiphenyl-3-yl)methoxy)benzyl)piperidine-2-carboxylic Acid] reads 0.00021 to 0.01 µM. As for `Cc1c(COc2cc(OCc3cncc(C#N)c3)c(CN3CCCC[C@H]3C(=O)O)cc2Cl)cccc1-c1cccc(OCCCN2CC[C@H](CO)[C@H](O)C2)c1C` [Example 2203, (2S)-1-(5-chloro-2-((5-cyanopyridin-3-yl)methoxy)-4-((3′-(3-((3 S,4R)-3-hydroxy-4-(hydroxymethyl)piperidin-1-yl)propoxy)-2,2′-dimethylbiphenyl-3-yl)methoxy)benzyl)piperidine-2-carboxylic Acid], the IC50 (value given as range class) was 0.00021 to 0.01 µM. Same read-out and setting: next, `Cc1c(COc2cc(OCc3cncc(C#N)c3)c(CN3CCCC[C@H]3C(=O)O)cc2Cl)cccc1-c1cccc(OCCCN2CCC[C@H](C(=O)O)C2)c1C` [Example 2204, (2S)-1-(4-((3′-(3-((S)-3-carboxypiperidin-1-yl)propoxy)-2,2′-dimethylbiphenyl-3-yl)methoxy)-5-chloro-2-((5-cyanopyridin-3-yl)methoxy)benzyl)piperidine-2-carboxylic Acid]: 0.00021 to 0.01 µM; `Cc1c(COc2cc(OCc3cncc(C#N)c3)c(CN3CCCC[C@H]3C(=O)O)cc2Cl)cccc1-c1cccc(OCCCN2CCC[C@@H](C(=O)O)C2)c1C` [Example 2205, (2S)-1-(4-((3′-(3-((R)-3-carboxypiperidin-1-yl)propoxy)-2,2′-dimethylbiphenyl-3-yl)methoxy)-5-chloro-2-((5-cyanopyridin-3-yl)methoxy)benzyl)piperidine-2-carboxylic Acid]: 0.00021 to 0.01 µM. Still for that read-out and setting: the result for `Cc1c(COc2cc(OCc3cncc(C#N)c3)c(CN3CCCC[C@H]3C(=O)O)cc2Cl)cccc1-c1cccc(OCCCN2CCCC(CO)C2)c1C` (stereo partly drawn) [Example 2206, (2S)-1-(5-chloro-2-((5-cyanopyridin-3-yl)methoxy)-4-((3′-(3-(3-(hydroxymethyl)piperidin-1-yl)propoxy)-2,2′-dimethylbiphenyl-3-yl)methoxy)benzyl)piperidine-2-carboxylic Acid] reads 0.00021 to 0.01 µM. The same measure, in the same setting: the result for `Cc1c(COc2cc(OCc3cncc(C#N)c3)c(CN3CCCC[C@H]3C(=O)O)cc2Cl)cccc1-c1cccc(OCCCN2CCCC(C(N)=O)C2)c1C` (stereo partly drawn) [Example 2207, (2S)-1-(4-((3′-(3-(3-carbamoylpiperidin-1-yl)propoxy)-2,2′-dimethylbiphenyl-3-yl)methoxy)-5-chloro-2-((5-cyanopyridin-3-yl)methoxy)benzyl)piperidine-2-carboxylic Acid] reads 0.00021 to 0.01 µM; that for `CCN(CC)C(=O)C1CCCN(CCCOc2cccc(-c3cccc(COc4cc(OCc5cncc(C#N)c5)c(CN5CCCC[C@H]5C(=O)O)cc4Cl)c3C)c2C)C1` (stereo partly drawn) [Example 2208, (2S)-1-(5-chloro-2-((5-cyanopyridin-3-yl)methoxy)-4-((3′-(3-(3-(diethylcarbamoyl)piperidin-1-yl)propoxy)-2,2′-dimethylbiphenyl-3-yl)methoxy)benzyl)piperidine-2-carboxylic Acid], 0.00021 to 0.01 µM. As for `Cc1c(COc2cc(OCc3cncc(C#N)c3)c(CN3CCCC[C@H]3C(=O)O)cc2Cl)cccc1-c1cccc(OCCCN[C@@H](Cc2ccncc2)C(=O)O)c1C` [Example 2209, (2S)-1-(4-((3′-(3-((S)-1-carboxy-2-(pyridin-4-yl)ethylamino)propoxy)-2,2′-dimethylbiphenyl-3-yl)methoxy)-5-chloro-2-((5-cyanopyridin-3-yl)methoxy)benzyl)piperidine-2-carboxylic Acid], under “value given as range class”, the 50% inhibitory concentration (IC50) was in the range of 0.01 to 0.1 µM. Still for that read-out and setting: next, `Cc1c(COc2cc(OCc3cncc(C#N)c3)c(CN3CCCC[C@H]3C(=O)O)cc2Cl)cccc1-c1cccc(OCCCNCCc2ccncc2)c1C` [Example 2210, (2S)-1-(5-chloro-2-((5-cyanopyridin-3-yl)methoxy)-4-((2,2′-dimethyl-3′-(3-(2-(pyridin-4-yl)ethylamino)propoxy)biphenyl-3-yl)methoxy)benzyl)piperidine-2-carboxylic Acid]: 0.00021 to 0.01 µM. The same measure, in the same setting: the result for `Cc1c(COc2cc(OCc3cncc(C#N)c3)c(CN3CCCC[C@H]3C(=O)O)cc2Cl)cccc1-c1cccc(OCCCN2CCN(CCO)CC2)c1C` [Example 2211, (2S)-1-(5-chloro-2-((5-cyanopyridin-3-yl)methoxy)-4-((3′-(3-(4-(2-hydroxyethyl)piperazin-1-yl)propoxy)-2,2′-dimethylbiphenyl-3-yl)methoxy)benzyl)piperidine-2-carboxylic Acid] reads 0.00021 to 0.01 µM; that for `Cc1c(COc2cc(OCc3cncc(C#N)c3)c(CN3CCCC[C@H]3C(=O)O)cc2Cl)cccc1-c1cccc(OCCCN2CCOCC2)c1C` [Example 2212, (2S)-1-(5-chloro-2-((5-cyanopyridin-3-yl)methoxy)-4-((2,2′-dimethyl-3′-(3-morpholinopropoxy)biphenyl-3-yl)methoxy)benzyl)piperidine-2-carboxylic Acid], 0.00021 to 0.01 µM; that for `Cc1c(COc2cc(OCc3cncc(C#N)c3)c(CN3CCCC[C@H]3C(=O)O)cc2Cl)cccc1-c1cccc(OCCCN2CCCCC2)c1C` [Example 2213, (2S)-1-(5-chloro-2-((5-cyanopyridin-3-yl)methoxy)-4-((2,2′-dimethyl-3′-(3-(piperidin-1-yl)propoxy)biphenyl-3-yl)methoxy)benzyl)piperidine-2-carboxylic Acid], 0.00021 to 0.01 µM. The same measure, in the same setting: next, `Cc1c(COc2cc(OCc3cncc(C#N)c3)c(CN3CCCC[C@H]3C(=O)O)cc2Cl)cccc1-c1cccc(OCCCN2CCC(CO)CC2)c1C` [Example 2214, (2S)-1-(5-chloro-2-((5-cyanopyridin-3-yl)methoxy)-4-((3′-(3-(4-(hydroxymethyl)piperidin-1-yl)propoxy)-2,2′-dimethylbiphenyl-3-yl)methoxy)benzyl)piperidine-2-carboxylic Acid]: 0.00021 to 0.01 µM; `CC(=O)NC1CCN(CCCOc2cccc(-c3cccc(COc4cc(OCc5cncc(C#N)c5)c(CN5CCCC[C@H]5C(=O)O)cc4Cl)c3C)c2C)C1` (stereo partly drawn) [Example 2215, (2S)-1-(4-((3′-(3-(3-acetamidopyrrolidin-1-yl)propoxy)-2,2′-dimethylbiphenyl-3-yl)methoxy)-5-chloro-2-((5-cyanopyridin-3-yl)methoxy)benzyl)piperidine-2-carboxylic Acid]: 0.00021 to 0.01 µM. For `Cc1c(COc2cc(OCc3cncc(C#N)c3)c(CN3CCCC[C@H]3C(=O)O)cc2Cl)cccc1-c1cccc(OCCCN2CCN(c3ccccn3)CC2)c1C` [Example 2216, (2S)-1-(5-chloro-2-((5-cyanopyridin-3-yl)methoxy)-4-((2,2′-dimethyl-3′-(3-(4-(pyridin-2-yl)piperazin-1-yl)propoxy)biphenyl-3-yl)methoxy)benzyl)piperidine-2-carboxylic Acid], for the setting “numeric IC50”, the 50% inhibitory concentration (IC50) turned out to be 0.03 µM. Turning to `Cc1c(COc2cc(OCc3cncc(C#N)c3)c(CN3CCCC[C@H]3C(=O)O)cc2Cl)cccc1-c1cccc(OCCCN2CCN(CC(=O)NC(C)C)CC2)c1C` [Example 2217, (2S)-1-(5-chloro-2-((5-cyanopyridin-3-yl)methoxy)-4-((3′-(3-(4-(2-(isopropylamino)-2-oxoethyl)piperazin-1-yl)propoxy)-2,2′-dimethylbiphenyl-3-yl)methoxy)benzyl)piperidine-2-carboxylic Acid], under “value given as range class”, the 50% inhibitory concentration (IC50) was 0.00021 to 0.01 µM. Same read-out and setting: the result for `Cc1c(COc2cc(OCc3cncc(C#N)c3)c(CN3CCCC[C@H]3C(=O)O)cc2Cl)cccc1-c1cccc(OCCCN(C)CCc2ccccc2)c1C` [Example 2218, (2S)-1-(5-chloro-2-((5-cyanopyridin-3-yl)methoxy)-4-((2,2′-dimethyl-3′-(3-(methyl(phenethyl)amino)propoxy)biphenyl-3-yl)methoxy)benzyl)piperidine-2-carboxylic Acid] reads 0.00021 to 0.01 µM.
